Test results: patent US10087229B2, “Peptide compound” (TAKEDA PHARMACEUTICAL COMPANY LIMITED, priority 2013, dated 2018)
Square brackets hold non-standard residues; d marks the D form. Peptide text beside a SMILES is read from it. * marks the point of attachment. αMeF = C[C@](N)(Cc1ccccc1)C(=O)O; 4Pal = N[C@@H](Cc1ccncc1)C(=O)O; Aib = CC(C)(N)C(=O)O; Bz = O=C(c1ccccc1)*

system: male C57BL/6J mouse; experiment: 2-days continuous subcutaneous administration test (feeding suppressive activity); assay type: in vivo; settings: 10 nmol/kg/day, subcutaneous Alzet pump, 2-days cumulative food consumption, control (solvent alone) = 0%
Method: 2-Days Continuous Subcutaneous Administration Test
The feeding suppressive activity of a test compound was examined by the method described below.
The test compound was dissolved in a solvent (50% DMSO) so that sustained release would occur at 10 nmol/kg/day, and the solution was filled in the Alzet Pump (DURECT Corporation, model: 1003D). The pump thus filled with the solution to be administered was immersed in physiological saline for priming, and then used. The pump was embedded by the following method. Each male C57BL/6J mouse at 8-9 weeks of age (20-26° C., allowed to take food and water ad libitum; 12-hour bright-12-hour dark cycle) was anesthetized; the skin in the upper back thereof was incised, and the above-mentioned pump was embedded subcutaneously; the incision was sutured. After weighing, this mouse was returned to the rearing cage (reared alone), and given previously weighed food; food consumption as of 2 days after the start of administration was measured. The food consumption was calculated by subtracting the amount of remaining food from the weight of the food given on the day of the start of administration. When the food consumption of a control group receiving administration of the solvent alone was regarded as a suppression rate of 0%, the feeding suppressive activity of each test compound was evaluated on the basis of 2-days cumulative food consumption after the start of administration. The food intake suppression rate (%) of the test compound was defined as (Food consumption of the control group−Food consumption of the test compound-administered group)/Food consumption of the control group×100.

Row | SMILES | Food intake suppression (%)
1 | CC(C)C[C@H](NC(=O)[C@H](CC(C)C)NC(=O)[C@H](Cc1c[nH]c2ccccc12)NC(=O)[C@H](CCCCN)NC(=O)[C@@H](NC(=O)[C@H](Cc1ccccc1)NC(=O)[C@H](CCC(=O)O)NC(=O)[C@H](C)NC(=O)[C@H](CCC(N)=O)NC(=O)[C@H](C)NC(=O)[C@H](CCC(N)=O)NC(=O)[C@H](CCCCN)NC(=O)[C@H](CC(=O)O)NC(=O)[C@H](CC(C)C)NC(=O)[C@](C)(Cc1ccccc1)NC(=O)[C@H](CCCCN)NC(=O)C(C)(C)NC(=O)[C@H](Cc1ccc(O)cc1)NC(=O)[C@H](CC(=O)O)NC(=O)[C@H](CO)NC(=O)[C@@H](NC(=O)[C@](C)(Cc1ccccc1)NC(=O)[C@@H](NC(=O)CNC(=O)[C@H](CCC(=O)O)NC(=O)C(C)(C)NC(=O)[C@@H](N)Cc1ccc(O)cc1)[C@@H](C)O)[C@@H](C)O)C(C)C)C(=O)N[C@@H](CCCCN)C(=O)NCC(=O)NCC(=O)N1CCC[C@H]1C(=O)N[C@@H](CO)C(=O)N[C@@H](CO)C(=O)NCC(=O)N[C@@H](C)C(=O)N1CCC[C@H]1C(=O)N1CCC[C@H]1C(=O)N1CCC[C@H]1C(=O)N[C@@H](CO)C(=O)N[C@@H](CCCCN)C(N)=O [Example 15] (H-Y[Aib]EGT[αMeF]TSDY[Aib]K[αMeF]LDKQAQAEFVKWLLKGGPSSGAPPPSK-NH2) | 58.80
2 | CC(C)C[C@H](NC(=O)[C@H](CC(C)C)NC(=O)[C@H](Cc1c[nH]c2ccccc12)NC(=O)[C@H](CCCCN)NC(=O)[C@@H](NC(=O)[C@H](Cc1ccccc1)NC(=O)[C@H](CCC(=O)O)NC(=O)[C@H](C)NC(=O)[C@H](CCC(N)=O)NC(=O)[C@H](C)NC(=O)[C@H](CCC(N)=O)NC(=O)[C@H](CCCCN)NC(=O)[C@H](CC(=O)O)NC(=O)[C@H](CC(C)C)NC(=O)C(C)(C)NC(=O)[C@H](CCCCN)NC(=O)C(C)(C)NC(=O)[C@H](Cc1ccc(O)cc1)NC(=O)[C@H](CC(=O)O)NC(=O)[C@H](CO)NC(=O)[C@@H](NC(=O)[C@](C)(Cc1ccccc1)NC(=O)[C@@H](NC(=O)CNC(=O)[C@H](CCC(=O)O)NC(=O)C(C)(C)NC(=O)[C@@H](N)Cc1ccc(O)cc1)[C@@H](C)O)[C@@H](C)O)C(C)C)C(=O)N[C@@H](CCCCN)C(=O)NCC(=O)NCC(=O)N1CCC[C@H]1C(=O)N[C@@H](CO)C(=O)N[C@@H](CO)C(=O)NCC(=O)N[C@@H](C)C(=O)N1CCC[C@H]1C(=O)N1CCC[C@H]1C(=O)N1CCC[C@H]1C(=O)N[C@@H](CO)C(=O)N[C@@H](CCCCN)C(N)=O [Example 9] (H-Y[Aib]EGT[αMeF]TSDY[Aib]K[Aib]LDKQAQAEFVKWLLKGGPSSGAPPPSK-NH2) | 45.23
3 | CC(C)C[C@H](NC(=O)[C@H](CC(C)C)NC(=O)[C@H](Cc1c[nH]c2ccccc12)NC(=O)[C@H](CCCCN)NC(=O)[C@@H](NC(=O)[C@H](Cc1ccccc1)NC(=O)[C@H](CCC(=O)O)NC(=O)[C@H](C)NC(=O)[C@H](CCC(N)=O)NC(=O)[C@H](C)NC(=O)[C@H](CCC(N)=O)NC(=O)[C@H](CCCCN)NC(=O)[C@H](CC(=O)O)NC(=O)[C@H](CC(C)C)NC(=O)C(C)(C)NC(=O)[C@H](C)NC(=O)C(C)(C)NC(=O)[C@H](Cc1ccc(O)cc1)NC(=O)[C@H](CC(=O)O)NC(=O)[C@H](CO)NC(=O)[C@@H](NC(=O)[C@](C)(Cc1ccccc1)NC(=O)[C@@H](NC(=O)CNC(=O)[C@H](CCC(=O)O)NC(=O)C(C)(C)NC(=O)[C@@H](N)Cc1ccc(O)cc1)[C@@H](C)O)[C@@H](C)O)C(C)C)C(=O)N[C@@H](CCCCN)C(=O)NCC(=O)NCC(=O)N1CCC[C@H]1C(=O)N[C@@H](CO)C(=O)N[C@@H](CO)C(=O)NCC(=O)N[C@@H](C)C(=O)N1CCC[C@H]1C(=O)N1CCC[C@H]1C(=O)N1CCC[C@H]1C(=O)N[C@@H](CO)C(=O)N[C@@H](CCCCN)C(N)=O [Example 10] (H-Y[Aib]EGT[αMeF]TSDY[Aib]A[Aib]LDKQAQAEFVKWLLKGGPSSGAPPPSK-NH2) | 62.04
4 | CC(C)C[C@H](NC(=O)[C@H](CC(C)C)NC(=O)[C@H](Cc1c[nH]c2ccccc12)NC(=O)[C@H](CCCCN)NC(=O)[C@@H](NC(=O)[C@H](Cc1ccccc1)NC(=O)[C@H](CCC(=O)O)NC(=O)[C@H](C)NC(=O)[C@H](CCC(N)=O)NC(=O)[C@H](C)NC(=O)[C@H](CCC(N)=O)NC(=O)[C@H](CCCCN)NC(=O)[C@H](CC(=O)O)NC(=O)[C@H](CC(C)C)NC(=O)C(C)(C)NC(=O)[C@H](Cc1ccncc1)NC(=O)C(C)(C)NC(=O)[C@H](Cc1ccc(O)cc1)NC(=O)[C@H](CC(=O)O)NC(=O)[C@H](CO)NC(=O)[C@@H](NC(=O)[C@](C)(Cc1ccccc1)NC(=O)[C@@H](NC(=O)CNC(=O)[C@H](CCC(=O)O)NC(=O)C(C)(C)NC(=O)[C@@H](N)Cc1ccc(O)cc1)[C@@H](C)O)[C@@H](C)O)C(C)C)C(=O)N[C@@H](CCCCN)C(=O)NCC(=O)NCC(=O)N1CCC[C@H]1C(=O)N[C@@H](CO)C(=O)N[C@@H](CO)C(=O)NCC(=O)N[C@@H](C)C(=O)N1CCC[C@H]1C(=O)N1CCC[C@H]1C(=O)N1CCC[C@H]1C(=O)N[C@@H](CO)C(=O)N[C@@H](CCCCN)C(N)=O [Example 12] (H-Y[Aib]EGT[αMeF]TSDY[Aib][4Pal][Aib]LDKQAQAEFVKWLLKGGPSSGAPPPSK-NH2) | 55.07
5 | CC[C@H](C)[C@H](NC(=O)C(C)(C)NC(=O)[C@H](Cc1ccc(O)cc1)NC(=O)[C@H](CC(=O)O)NC(=O)[C@H](CO)NC(=O)[C@@H](NC(=O)[C@](C)(Cc1ccccc1)NC(=O)[C@@H](NC(=O)CNC(=O)[C@H](CCC(=O)O)NC(=O)C(C)(C)NC(=O)[C@H](Cc1ccc(O)cc1)NC(=O)c1ccccc1)[C@@H](C)O)[C@@H](C)O)C(=O)NC(C)(C)C(=O)N[C@@H](CC(C)C)C(=O)N[C@@H](CC(=O)O)C(=O)N[C@@H](CCCCN)C(=O)N[C@@H](CCC(N)=O)C(=O)N[C@@H](C)C(=O)N[C@@H](CCC(N)=O)C(=O)N[C@@H](C)C(=O)N[C@@H](CCC(=O)O)C(=O)N[C@@H](Cc1ccccc1)C(=O)N[C@H](C(=O)N[C@@H](CCCCN)C(=O)N[C@@H](Cc1c[nH]c2ccccc12)C(=O)N[C@@H](CC(C)C)C(=O)N[C@@H](CC(C)C)C(=O)N[C@@H](CCCCN)C(=O)NCC(=O)NCC(=O)N1CCC[C@H]1C(=O)N[C@@H](CO)C(=O)N[C@@H](CO)C(=O)NCC(=O)N[C@@H](C)C(=O)N1CCC[C@H]1C(=O)N1CCC[C@H]1C(=O)N1CCC[C@H]1C(=O)N[C@@H](CO)C(=O)N[C@@H](CCCCN)C(N)=O)C(C)C [Example 19] (Bz-Y[Aib]EGT[αMeF]TSDY[Aib]I[Aib]LDKQAQAEFVKWLLKGGPSSGAPPPSK-NH2) | 34.79
6 | CC[C@H](C)[C@H](NC(=O)C(C)(C)NC(=O)[C@H](Cc1ccc(O)cc1)NC(=O)[C@H](CC(=O)O)NC(=O)[C@H](CO)NC(=O)[C@@H](NC(=O)[C@](C)(Cc1ccccc1)NC(=O)[C@@H](NC(=O)CNC(=O)[C@H](CCC(=O)O)NC(=O)C(C)(C)NC(=O)[C@@H](N)Cc1ccc(O)cc1)[C@@H](C)O)[C@@H](C)O)C(=O)NC(C)(C)C(=O)N[C@@H](CC(C)C)C(=O)N[C@@H](CC(=O)O)C(=O)N[C@@H](CCCCN)C(=O)N[C@@H](CCC(N)=O)C(=O)N[C@@H](C)C(=O)N[C@@H](CCC(N)=O)C(=O)N[C@@H](C)C(=O)N[C@@H](CCC(=O)O)C(=O)N[C@@H](Cc1ccccc1)C(=O)N[C@H](C(=O)N[C@@H](CCCCN)C(=O)N[C@@H](Cc1c[nH]c2ccccc12)C(=O)N[C@@H](CC(C)C)C(=O)N[C@@H](CC(C)C)C(=O)N[C@@H](CCCCN)C(=O)NCC(=O)NCC(=O)N1CCC[C@H]1C(=O)N[C@@H](CO)C(=O)N[C@@H](CO)C(=O)NCC(=O)N[C@@H](C)C(=O)N1CCC[C@H]1C(=O)N1CCC[C@H]1C(=O)N1CCC[C@H]1C(=O)N[C@@H](CO)C(N)=O)C(C)C [Example 6] (H-Y[Aib]EGT[αMeF]TSDY[Aib]I[Aib]LDKQAQAEFVKWLLKGGPSSGAPPPS-NH2) | 65.20
7 | CC[C@H](C)[C@H](NC(=O)C(C)(C)NC(=O)[C@H](Cc1ccc(O)cc1)NC(=O)[C@H](CC(=O)O)NC(=O)[C@H](CO)NC(=O)[C@@H](NC(=O)[C@](C)(Cc1ccccc1)NC(=O)[C@@H](NC(=O)CNC(=O)[C@H](CCC(=O)O)NC(=O)C(C)(C)NC(=O)[C@@H](N)Cc1ccc(O)cc1)[C@@H](C)O)[C@@H](C)O)C(=O)NC(C)(C)C(=O)N[C@@H](CC(C)C)C(=O)N[C@@H](CC(=O)O)C(=O)N[C@@H](CCCCN)C(=O)N[C@@H](CCC(N)=O)C(=O)N[C@@H](C)C(=O)N[C@@H](CCC(N)=O)C(=O)N[C@@H](CO)C(=O)N[C@@H](CCC(=O)O)C(=O)N[C@@H](Cc1ccccc1)C(=O)N[C@H](C(=O)N[C@@H](CCCCN)C(=O)N[C@@H](Cc1c[nH]c2ccccc12)C(=O)N[C@@H](CC(C)C)C(=O)N[C@@H](CC(C)C)C(=O)N[C@@H](CCCCN)C(=O)NCC(=O)NCC(=O)N1CCC[C@H]1C(=O)N[C@@H](CO)C(=O)N[C@@H](CO)C(=O)NCC(=O)N[C@@H](C)C(=O)N1CCC[C@H]1C(=O)N1CCC[C@H]1C(=O)N1CCC[C@H]1C(=O)N[C@@H](CO)C(=O)N[C@@H](CCCCN)C(N)=O)C(C)C [Example 4] (H-Y[Aib]EGT[αMeF]TSDY[Aib]I[Aib]LDKQAQSEFVKWLLKGGPSSGAPPPSK-NH2) | 57.01
